Results published in patent US6143715A, “Hepatitis C inhibitor peptide analogues” (priority 1998, dated 2000).
Where two headings read alike, the source gives them in different places. Starred links: 1 amine or outer side, 2 acyl side, 3 side chain; linkers in the order of their positions; H or OH if unused. Non-standard residues stand in square brackets, D forms with d. Residues, ends and D or L forms follow the SMILES beside them. ξ: configuration not given here. *: point of attachment. Tetrahydroisoquinolin(2-yl) = c1ccc2c(c1)CCN(*)C2; NH(1S-phenylpropyl) = CC[C@H](N*)c1ccccc1; NH(1S-phenylethyl) = C[C@H](N*)c1ccccc1; X21 = CCCN(N*)C(=O)CCc1nc(-c2ccccn2)no1; X11 = CCCN(N*)C(=O)[C@H](O)c1ccccc1; X20 = O=C(N(CC(F)(F)F)N[*:1])[*:2]; X1 = CCCC(N*)C(=O)C(F)(F)C(F)(F)F; X15 = CCCC(N[*:1])C(=O)C(=O)[*:2]; Hyp = O=C(O)[C@@H]1C[C@@H](O)CN1; NHPiperonyl = c1cc2c(cc1CN*)OCO2; azaNva = CCCN(N[*:1])C(=O)[*:2]; X10 = C=CCN(N[*:1])C(=O)[*:2]; X18 = CCCN(N*)C(=S)NCc1ccccc1; NMe(benzyl) = CN(Cc1ccccc1)*; Suc = O=C(CCC(=O)[*:2])[*:1]; X12 = C[C@H](N*)c1nnn[nH]1; Nva = CCC[C@H](N)C(=O)O; X14 = c1ccc2c(c1)CCN2*; X16 = CCCCN(N*)C(N)=O; NHBn = c1ccc(CN*)cc1; X13 = CCCN(N*)C(N)=O; X19 = CCCN(N*)C(C)=O; ξNva = CCCC(N)C(=O)O; Bn = c1ccc(C*)cc1

Biological target: T1, HCV NS3 protease type 1b/NS4A cofactor peptide (Hepatitis C virus genotype 1b, UniProt P26663)
T1 construct: recombinant HCV NS3 protease (amino acid 1027 to 1206) was cloned; made in house; host or cells: E. coli BL21(DE3)pLysS
T1 sequence (P26663 1027-1206, other chains not shown): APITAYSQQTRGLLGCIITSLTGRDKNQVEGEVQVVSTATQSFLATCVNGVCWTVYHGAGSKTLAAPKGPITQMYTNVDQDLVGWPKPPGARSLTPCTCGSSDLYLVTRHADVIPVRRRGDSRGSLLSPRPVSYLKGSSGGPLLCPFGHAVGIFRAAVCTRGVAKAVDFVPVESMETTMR
Assay: biochemical
Parameters: species or system hepatitis C virus (HCV) genotype 1b
Excerpt: a) Cloning, expression and purification of the recombinant HCV NS3 protease type lb
Serum from an HCV-infected patient was obtained through an external collaboration (Bernard Willems MD, Hopital St-Luc, Montreal, Canada and Dr. Donald Murphy, Laboratoire de Sante Publique du Quebec, Ste-Anne de Bellevue, Canada). An engineered full-length cDNA template of the HCV genome was constructed from DNA fragments obtained by reverse transcription-PCR (RT-PCR) of serum RNA and using specific primers selected on the basis of homology between other genotype lb strains. […] A DNA fragment encoding the polyprotein precursor (NS3/NS4A/NS4B/NS5A/NS5B) was generated by PCR and introduced into eucaryotic expression vectors.
The NS3 protease expression in E. coli BL21(DE3)pLysS was induced by incubation with 1 mM IPTG for 3 h at 22° C. […] The cells were resuspended in lysis buffer (3.0 mL/g) consisting of 25 mM sodium phosphate, pH 7.5, 10% glycerol (v/v), 1 mM EDTA, 0.01% NP-40 and stored at -80° C. Cells were thawed and homogenized following the addition of 5 mM DTT. Magnesium chloride and DNase were then added to the homogenate at final concentrations of 20 mM and 20 μg/mL respectively. After a 25 min incubation at 4° C., the homogenate was sonicated and centrifuged at 15000× g for 30 min at 4° C. The pH of the supernatant was then adjusted to 6.5 using a 1M sodium phosphate solution.
Briefly, the supernatant from the bacterial extract was loaded on a SP HiTrap column (Pharmacia) previously equilibrated at a flow rate of 2 mL/min in buffer A (50 mM sodium phosphate, pH 6.5, 10% glycerol, 1 mM EDTA, 5 mM DTT, 0.01% NP-40). The column was then washed with buffer A containing 0.15 M NaCl and the protease eluted by applying 10 column volumes of a linear 0.15 to 0.3 M NaCl gradient. NS3 protease-containing fractions were pooled and diluted to a final NaCl concentration of 0.1 M. The enzyme was further purified on a HiTrap Heparin column (Pharmacia) equilibrated in buffer B (25 mM sodium phosphate, pH 7.5, 10% glycerol, 5 mM DTT, 0.01% NP-40). The sample was loaded at a flow rate of 3 mL/min. The column was then washed with buffer B containing 0.15 M NaCl at a flow rate of 1.5 mL/min. Two step washes were performed in the presence of buffer B containing 0.3 or 1M NaCl. […] Finally, the NS3 protease-containing fractions were applied on a Superdex 75 HiLoad 16/60 column (Pharmacia) equilibrated in buffer B containing 0.3 M NaCl.
The enzyme was stored at -80° C. and was thawed on ice and diluted just prior to use.
Recombinant HCV NS3 Protease/NS4A Cofactor Peptide Radiometric Assay
The enzyme was stored at -80° C., thawed on ice and diluted just prior to use in the assay buffer containing the NS4A cofactor peptide.
The substrate used for the NS3 protease/[…] cofactor peptide radiometric assay, DDIVPC-SMSYTW, is cleaved between the cysteine and the serine residues by the enzyme. The sequence DDIVPC-SMSYTW corresponds to the NS5A/NS5B natural cleavage site in which the cysteine residue in […] has been substituted for a proline. […] (molar ratio enzyme: cofactor 1:100) in the absence or presence of inhibitors. The separation of substrate from products is performed by adding avidin-coated agarose beads to the assay mixture followed by filtration.
Assay buffer: 50 mM Tris HCl, pH 7.5, 30% (w/v) glycerol, 1 mg/mL BSA, 1 mM TCEP (TCEP added just prior to use from a 1 M stock solution in water)
Substrate: […], […] final concentration (from a 2 mM stock solution in DMSO stored at -20° C. to avoid oxidation).

SMILES | IC50 | IC50 (IC50: concentration required to obtain 50% inhibition in the NS3 protease/NS4A cofactor peptide radiometric assay, enzyme:cofactor 1:100, 40 min at 23° C.)
CCCN(NC(=O)[C@@H]1C[C@@H](OCc2ccccc2)CN1C(=O)[C@@H](NC(=O)[C@@H](NC(=O)[C@@H](CCC(=O)O)NC(=O)[C@H](CC(=O)O)NC(C)=O)[C@@H](C)CC)C(C)C)C(=O)N(C)Cc1ccccc1 [Compound 223] (Ac-D[dE]IV[Hyp](Bn)[azaNva]-{NMe(benzyl)}) | 11 µM | 
CCCC(NC(=O)[C@@H]1C[C@@H](OCc2ccccc2)CN1C(=O)[C@@H](NC(=O)[C@@H](NC(C)=O)C1CCCCC1)C(C)C)C(=O)C(=O)NCc1ccncc1 (some centres unmarked) [Compound 116] | 25 µM | 
CCCN(NC(=O)[C@@H]1C[C@@H](OCc2ccccc2)CN1C(=O)[C@@H](NC(=O)[C@@H](NC(=O)[C@@H](CCC(=O)O)NC(=O)[C@H](CC(=O)O)NC(C)=O)[C@@H](C)CC)C(C)C)C(=O)NCC(=O)O [Compound 207] (Ac-D[dE]IV[Hyp](Bn)[azaNva]G-OH) | 3.75 µM | 
CCCN(NC(=O)[C@@H]1C[C@@H](OCc2ccccc2)CN1C(=O)[C@@H](NC(=O)[C@@H](NC(=O)[C@@H](CCC(=O)O)NC(=O)[C@H](CC(=O)O)NC(C)=O)[C@@H](C)CC)C(C)C)C(=O)NCc1ccc2c(c1)OCO2 [Compound 231] (Ac-D[dE]IV[Hyp](Bn)[azaNva]-NHPiperonyl) | 0.5 µM | 
CCCN(NC(=O)[C@@H]1C[C@@H](OCc2ccccc2)CN1C(=O)[C@@H](NC(=O)[C@@H](NC(=O)[C@@H](CCC(=O)O)NC(=O)[C@H](CC(=O)O)NC(C)=O)[C@@H](C)CC)C(C)C)C(=O)N[C@@H](CC)c1ccccc1 [Compound 214] (Ac-D[dE]IV[Hyp](Bn)[azaNva]-{NH(1S-phenylpropyl)}) | 0.44 µM | 
CCCCN(NC(=O)[C@@H]1C[C@@H](OCc2ccccc2)CN1C(=O)[C@@H](NC(=O)[C@@H](NC(=O)[C@@H](CCC(=O)O)NC(=O)[C@H](CC(=O)O)NC(C)=O)[C@@H](C)CC)C(C)C)C(N)=O [Compound 211] (Ac-D[dE]IV[Hyp](Bn)-X16) | 47 µM | 
CCCN(NC(=O)[C@@H]1C[C@@H](OCc2ccccc2)CN1C(=O)[C@@H](NC(=O)[C@@H](NC(=O)[C@@H](CCC(=O)O)NC(=O)[C@H](CC(=O)O)NC(C)=O)[C@@H](C)CC)C(C)C)C(=O)N1CCc2ccccc21 [Compound 226] (Ac-D[dE]IV[Hyp](Bn)[azaNva]-X14) | 6.3 µM | 
CCCN(NC(=O)[C@@H]1C[C@@H](OCc2ccccc2)CN1C(=O)[C@@H](NC(=O)[C@@H](NC(=O)[C@@H](CCC(=O)O)NC(=O)[C@H](CC(=O)O)NC(C)=O)[C@@H](C)CC)C(C)C)C(=O)N[C@@H](C)c1nnn[nH]1 [Compound 233] (Ac-D[dE]IV[Hyp](Bn)[azaNva]-X12) | 1.5 µM | 
CCCC(NC(=O)[C@@H]1C[C@@H](OCc2ccccc2)CN1C(=O)[C@@H](NC(=O)[C@@H](NC(=O)[C@@H](CCC(=O)O)NC(=O)[C@H](CC(=O)O)NC(C)=O)[C@@H](C)CC)C(C)C)C(=O)C(=O)NCc1ccccc1 (some centres unmarked) [Compound 103] (Ac-D[dE]IV[Hyp](Bn)[X15]-NHBn) | 0.023 µM | 
CCCN(NC(=O)[C@@H]1C[C@@H](OCc2ccccc2)CN1C(=O)[C@@H](NC(=O)[C@@H](NC(=O)[C@@H](CCC(=O)O)NC(=O)[C@H](CC(=O)O)NC(C)=O)[C@@H](C)CC)C(C)C)C(C)=O [Compound 208] (Ac-D[dE]IV[Hyp](Bn)-X19) | 14.5 µM | 
CCCN(NC(=O)[C@@H]1C[C@@H](OCc2ccccc2)CN1C(=O)[C@@H](NC(=O)[C@@H](NC(=O)[C@@H](CCC(=O)O)NC(=O)[C@H](CC(=O)O)NC(C)=O)[C@@H](C)CC)C(C)C)C(N)=O [Compound 209] (Ac-D[dE]IV[Hyp](Bn)-X13) | 20.5 µM | 
CCCN(NC(=O)[C@@H]1C[C@@H](OCc2ccccc2)CN1C(=O)[C@@H](NC(=O)[C@@H](NC(=O)[C@@H](CCC(=O)O)NC(=O)[C@H](CC(=O)O)NC(C)=O)[C@@H](C)CC)C(C)C)C(=O)[C@H](O)c1ccccc1 [Compound 216] (Ac-D[dE]IV[Hyp](Bn)-X11) | 9.6 µM | 
C=CCN(NC(=O)[C@@H]1C[C@@H](OCc2ccccc2)CN1C(=O)[C@@H](NC(=O)[C@@H](NC(=O)[C@@H](CCC(=O)O)NC(=O)[C@H](CC(=O)O)NC(C)=O)[C@@H](C)CC)C(C)C)C(=O)NCc1ccccc1 [Compound 234] (Ac-D[dE]IV[Hyp](Bn)[X10]-NHBn) | 3.7 µM | 
CCCC(NC(=O)[C@@H]1C[C@@H](OCc2ccccc2)CN1C(=O)[C@@H](NC(=O)[C@@H](NC(=O)[C@@H](CCC(=O)O)NC(=O)[C@H](CC(=O)O)NC(C)=O)[C@@H](C)CC)C(C)C)C(=O)N1CCc2ccccc2C1 (some centres unmarked) [Compound 111] (Ac-D[dE]IV[Hyp](Bn)[ξNva]-{Tetrahydroisoquinolin(2-yl)}) | 20 µM | 
CCCC(NC(=O)[C@@H]1C[C@@H](OCc2ccccc2)CN1C(=O)[C@@H](NC(=O)[C@@H](NC(=O)[C@@H](CCC(=O)O)NC(=O)[C@H](CC(=O)O)NC(C)=O)[C@@H](C)CC)C(C)C)P(=O)(Oc1ccccc1)Oc1ccccc1 (single isomer, unassigned) [Compound 302] |  | 26 µM
CCCC(NC(=O)[C@@H]1C[C@@H](OCc2ccccc2)CN1C(=O)[C@@H](NC(=O)[C@@H](NC(=O)[C@@H](CCC(=O)O)NC(=O)[C@H](CC(=O)O)NC(C)=O)[C@@H](C)CC)C(C)C)C(N)=O (some centres unmarked) [Compound 105] (Ac-D[dE]IV[Hyp](Bn)[ξNva]-NH2) | 54 µM | 
CCC[C@H](NC(=O)[C@@H]1C[C@@H](OCc2ccccc2)CN1C(=O)[C@@H](NC(=O)[C@@H](NC(=O)[C@@H](CCC(=O)O)NC(=O)[C@H](CC(=O)O)NC(C)=O)[C@@H](C)CC)C(C)C)C(=O)NCc1ccccc1 [Compound 107] (Ac-D[dE]IV[Hyp](Bn)[Nva]-NHBn) | 3 µM | 
CCCN(NC(=O)[C@@H]1C[C@@H](OCc2ccccc2)CN1C(=O)[C@@H](NC(=O)[C@@H](NC(=O)[C@@H](CCC(=O)O)NC(=O)[C@H](CC(=O)O)NC(C)=O)[C@@H](C)CC)C(C)C)C(=O)NCc1ccccc1 [Compound 203] (Ac-D[dE]IV[Hyp](Bn)[azaNva]-NHBn) | 0.59 µM | 
CC[C@H](C)[C@H](NC(=O)[C@@H](CCC(=O)O)NC(=O)[C@H](CC(=O)O)NC(C)=O)C(=O)N[C@H](C(=O)N1C[C@H](OCc2ccccc2)C[C@H]1C(=O)NN(CC(F)(F)F)C(=O)N[C@@H](C)c1ccccc1)C(C)C [Compound 228] (Ac-D[dE]IV[Hyp](Bn)[X20]-{NH(1S-phenylethyl)}) | 0.63 µM | 
CCCC(NC(=O)[C@@H]1C[C@@H](OCc2ccccc2)CN1C(=O)[C@@H](NC(=O)[C@@H](NC(=O)[C@@H](CCC(=O)O)NC(=O)[C@H](CC(=O)O)NC(C)=O)[C@@H](C)CC)C(C)C)C(=O)C(F)(F)C(F)(F)F (some centres unmarked) [Compound 102] (Ac-D[dE]IV[Hyp](Bn)-X1) | 0.21 µM | 
CCCN(NC(=O)[C@@H]1C[C@@H](OCc2ccccc2)CN1C(=O)[C@@H](NC(=O)[C@@H](NC(=O)[C@@H](CCC(=O)O)NC(=O)[C@H](CC(=O)O)NC(C)=O)[C@@H](C)CC)C(C)C)C(=O)CCc1nc(-c2ccccn2)no1 [Compound 232] (Ac-D[dE]IV[Hyp](Bn)-X21) | 3.2 µM | 
CCCN(NC(=O)[C@@H]1CCCN1C(=O)[C@@H](NC(=O)[C@@H](NC(=O)[C@@H](CC(=O)O)NC(=O)CCC(=O)O)[C@@H](C)CC)C(C)C)C(=O)N[C@@H](C)c1ccccc1 [Compound 220] (Suc-[dD]IVP[azaNva]-{NH(1S-phenylethyl)}) | 6.9 µM | 
CCCN(NC(=O)[C@@H]1C[C@@H](OCc2ccccc2)CN1C(=O)[C@@H](NC(=O)[C@@H](NC(=O)[C@@H](CCC(=O)O)NC(=O)[C@H](CC(=O)O)NC(C)=O)[C@@H](C)CC)C(C)C)C(=S)NCc1ccccc1 [Compound 224] (Ac-D[dE]IV[Hyp](Bn)-X18) | 5 µM | 
